{"source": "patent US11806359B2", "about": "(priority 2020, dated 2023)", "key": {"[1]": {"test_system": "Dengue virus", "conditions": "Cheung et al. 2014; cited from earlier work"}, "[2]": {"test_system": "HEP C", "conditions": "cited from earlier work"}, "[3]": {"test_system": "HCV H strain NS5B", "conditions": "cited from earlier work"}, "[4]": {"test_system": "HIV-1", "conditions": "cited from earlier work"}, "[5]": {"test_system": "ENTV CVB1", "conditions": "cited from earlier work"}, "[6]": {"test_system": "HSV-2", "conditions": "cited from earlier work"}, "[7]": {"test_system": "HSV-1", "conditions": "cited from earlier work"}, "[8]": {"test_system": "ADV-3", "conditions": "cited from earlier work"}, "[9]": {"test_system": "ADV-8", "conditions": "cited from earlier work"}, "[10]": {"test_system": "ADV-11", "conditions": "cited from earlier work"}, "[11]": {"test_system": "ENTV EV71", "conditions": "cited from earlier work"}, "[12]": {"test_system": "HEP B", "conditions": "cited from earlier work"}, "[13]": {"test_system": "adenovirus", "experiment": "Antiviral activity against adenovirus", "type": "cell-based"}, "[14]": {"test_system": "SARS-CoV-2", "type": "cell-based", "conditions": "FIG. 32"}}, "data": [{"molecule": "CC(=O)O[C@H]1C[C@H](O[C@H]2[C@@H](O)C[C@H](O[C@H]3[C@@H](O)C[C@H](O[C@H]4CC[C@@]5(C)[C@H](CC[C@@H]6[C@@H]5C[C@@H](O)[C@]5(C)[C@@H](C7=CC(=O)OC7)CC[C@]65O)C4)O[C@@H]3C)O[C@@H]2C)O[C@H](C)[C@H]1O[C@@H]1O[C@H](CO)[C@@H](O)[C@H](O)[C@H]1O", "note": "[lanatoside C]", "values": [{"measurement": "antiviral activity against Dengue virus", "setting": "[1]", "value": "demonstrates antiviral activity against Dengue virus"}]}, {"molecule": "CC1(C)CC[C@]2(C(=O)O)CC[C@]3(C)C(=CC[C@@H]4[C@@]5(C)CC[C@H](O)C(C)(C)[C@@H]5CC[C@]43C)[C@@H]2C1", "note": "[Oleanolic acid]", "values": [{"measurement": "anti-viral activity against HEP C", "setting": "[2]", "value": "some anti-viral activity"}, {"measurement": "anti-viral activity against HCV H strain NS5B", "setting": "[3]", "value": "some anti-viral activity"}, {"measurement": "anti-viral activity against HIV-1", "setting": "[4]", "value": "some anti-viral activity"}]}, {"molecule": "C[C@H]1[C@H](C)CC[C@]2(C(=O)O)CC[C@]3(C)C(=CC[C@@H]4[C@@]5(C)CC[C@H](O)C(C)(C)[C@@H]5CC[C@]43C)[C@H]12", "note": "[Ursolic acid]", "values": [{"measurement": "anti-viral activity against ENTV CVB1", "setting": "[5]", "value": "some anti-viral activity"}, {"measurement": "anti-viral activity against HEP C", "setting": "[2]", "value": "some anti-viral activity"}, {"measurement": "anti-viral activity against HSV-2", "setting": "[6]", "value": "some anti-viral activity"}, {"measurement": "anti-viral activity against HSV-1", "setting": "[7]", "value": "some anti-viral activity"}, {"measurement": "anti-viral activity against ADV-3", "setting": "[8]", "value": "some anti-viral activity"}, {"measurement": "anti-viral activity against ADV-8", "setting": "[9]", "value": "some anti-viral activity"}, {"measurement": "anti-viral activity against HCV H strain NS5B", "setting": "[3]", "value": "some anti-viral activity"}, {"measurement": "anti-viral activity against ADV-11", "setting": "[10]", "value": "some anti-viral activity"}, {"measurement": "anti-viral activity against HIV-1", "setting": "[4]", "value": "some anti-viral activity"}, {"measurement": "anti-viral activity against ENTV EV71", "setting": "[11]", "value": "some anti-viral activity"}, {"measurement": "anti-viral activity against HEP B", "setting": "[12]", "value": "some anti-viral activity"}]}, {"molecule": "C[C@H]1O[C@@H](O[C@H]2[C@@H](O)C[C@H](O[C@H]3[C@@H](O)C[C@H](O[C@H]4CC[C@@]5(C)[C@H](CC[C@@H]6[C@@H]5C[C@@H](O)[C@]5(C)[C@@H](C7=CC(=O)OC7)CC[C@]65O)C4)O[C@@H]3C)O[C@@H]2C)C[C@H](O)[C@@H]1O", "note": "[digoxin, reference compound]", "values": [{"measurement": "activity against adenovirus", "setting": "[13]", "value": "inactive"}, {"measurement": "inhibition of viral replication", "setting": "[14]", "value": "efficacy of digoxin against the virus"}]}]}
